In patent US20230391825A1, “ENHANCED SKIN PERMEATION OF A NOVEL PEPTIDE VIA STRUCTURAL MODIFICATION, CHEMICAL ENHANCEMENT, AND MICRONEEDLES” (ESCAPE THERAPEUTICS, INC., priority 2020, published 2023):
Peptide text beside a SMILES is read from it.

How the values were obtained:
mushroom tyrosinase = conditions: cited from earlier work
human tyrosinase = biological target: T1, human tyrosinase (Homo sapiens, UniProt P14679); conditions: cited from earlier work
T1 sequence (P14679 19-529): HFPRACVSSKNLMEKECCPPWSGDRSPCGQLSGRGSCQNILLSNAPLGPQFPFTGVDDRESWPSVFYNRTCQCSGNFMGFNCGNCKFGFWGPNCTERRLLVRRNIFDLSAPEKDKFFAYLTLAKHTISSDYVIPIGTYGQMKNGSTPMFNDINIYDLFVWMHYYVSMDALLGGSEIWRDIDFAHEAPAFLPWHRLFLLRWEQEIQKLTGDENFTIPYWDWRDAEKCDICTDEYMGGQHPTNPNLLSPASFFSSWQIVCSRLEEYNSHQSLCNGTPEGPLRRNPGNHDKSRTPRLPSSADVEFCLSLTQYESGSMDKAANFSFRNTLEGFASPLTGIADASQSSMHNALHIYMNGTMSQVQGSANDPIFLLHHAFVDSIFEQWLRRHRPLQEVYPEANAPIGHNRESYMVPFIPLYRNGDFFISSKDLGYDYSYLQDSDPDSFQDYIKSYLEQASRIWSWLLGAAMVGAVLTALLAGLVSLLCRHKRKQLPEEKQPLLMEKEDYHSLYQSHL

[1] = format: in vitro ADME
Excerpt: Human dermatomed skin was obtained from Science Care (Arizona, USA). The skin tissues were excised from the thighs of two male cadavers with age at death of 66 and 57. The skin samples used in the study were without identifier and exempted from ethical review. The Integrity of cadaver skin was checked using visual inspection before use to ensure no pores or breaks in the skin surface were present. In addition, any compromise in skin integrity was identified through observation of a rapid and large increase in the amount of permeated peptide through the skin at the first sampling time point.
Franz type diffusion cells were used. Human epidermis was mounted between donor and receptor compartments and excessive skin at the sides was trimmed off to minimize lateral diffusion. SC was faced towards the donor compartment and the skin area for permeation was 1.327 square centimeters. The receptor compartment was filled with 5.5 milliliters of 1 millimolar PBS solution containing 1 percent (volume/volume) antibacterial antimycotic solution. Receptor solution was filtered twice to prevent formation of air bubbles beneath the epidermis. […] Permeation was measured over 24 hours.
The amount of peptide permeated was determined using Shimadzu CBM-20A HPLC system with Agilent ODS C18 column (4.6 millimeters x 250 millimeters x 5 microns, 170 Angstroms). […]

melasma = conditions: cited from earlier work

## N=C(N)NCCC[C@H](NC(=O)[C@H](CO)NC(=O)[C@H](CCCNC(=N)N)NC(=O)[C@@H](N)Cc1ccc(O)cc1)C(=O)N[C@@H](CCCCN)C(=O)N[C@@H](Cc1ccc(O)cc1)C(=O)N[C@@H](CO)C(=O)N[C@@H](CO)C(=O)N[C@@H](Cc1c[nH]c2ccccc12)C(=O)N[C@@H](Cc1ccc(O)cc1)C(=O)O [Native peptide, decapeptide-12] (H-YRSRKYSSWY-OH)
Mushroom tyrosinase
  Competitive inhibition effect compared with hydroquinone: stronger competitive inhibition effect
Human tyrosinase
  Competitive inhibition effect compared with hydroquinone: stronger competitive inhibition effect
[1]
  Effect of enhancers on skin permeation: didn't alter skin permeation
melasma; 16 weeks of twice daily treatment
  Efficacy in reducing content of melanin: more than 50%
melasma; in vivo
  Safety compared with hydroquinone: safer than hydroquinone
melasma; studies on humans, topical
  Effect in treatment of melasma: good efficacy
